Values quoted from earlier work, collected in patent US8580317B2, “Compositions and methods for treating acne” (Revance Therapeutics, Inc., priority 2005, dated 2013).

Assays:
[1] = benzoyl peroxide topically applied
[2] = tested on: propionibacterium acnes (P. Acnes); conditions: background statement

Compound: O=C(OOC(=O)c1ccccc1)c1ccccc1 [benzoyl peroxide]
- share of the population that experiences skin allergies [1]: about 10%
- kills P. acnes compared with other medications [2]: better than any other medication on the market
